Assay results reported in patent US10611751B2, “Dopamine D1 receptor positive allosteric modulators” (Eli Lilly and Company, priority 2018, dated 2020).

Target: human D1 receptor (Homo sapiens (Human), UniProt P21728)
Assay: Human D1 Receptor PAM Assay (cAMP HTRF, potentiator mode with EC20 dopamine)
Format: cell-based
Conditions: for EC50: HEK293 cells expressing human D1 receptor, 12 nM dopamine (EC20), cAMP, read-out: Abs EC50; for Emax: fitted top of curve, 0% = EC20 dopamine, 100% = 5 μM dopamine, read-out: % Top (% Potentiation)
Excerpt: The PAM activity of the compounds of the present invention may be measured essentially as described in Svensson et al., An Allosteric Potentiator of the Dopamine D1 Receptor Increases Locomotor Activity in Human D1 Knock-in Mices without Casusing Stereotypy or Tachyphylaxis. J. Pharmacol. Exp. Ther. (2017) 360:117-128.
More specifically, HEK293 cells that stably express the human D1 receptor (Accession number NM_000794) are generated by gene transduction using the pBABE-bleo retroviral vector and selected with Zeocin™ (InvivoGen). At approximately 80% confluency, the cells are harvested using TrypLE™ Express (Gibco), suspended in FBS plus 8% DMSO, and stored in liquid nitrogen. On the day of the assay, cells are thawed and resuspended in STIM buffer (Hanks Balanced Salt Solution supplemented with 0.1% BSA, 20 mM HEPES, 500 μM IBMX, and 100 μM ascorbic acid).
Test compound is serially diluted (1:2) with DMSO into assay plates (ProxiPlate-384 Plus, PerkinElmer) using acoustic dispensing (Labcyte) to provide 20 concentrations for full response curves. […] Plates are incubated at room temperature for a total reaction time of 60 min.
cAMP production is quantified using HTRF® detection (Cisbio) according to the manufacturer's instructions. Generally, lysis buffer containing anti-cAMP cryptate (5 μL) and D2-conjugate (from HTRF® kit) (5 μL) is added to the wells, plates are incubated for an additional 60-90 min, and the time-resolved fluorescence is detected using an EnVision™ plate reader (PerkinElmer). Fluorescence data is converted to cAMP concentrations using a cAMP standard curve and analyzing using a 4-parameter non-linear logistic equation (Genedata Screener, version 13.0.5-standard). For potentiator mode concentration-response curves, results are expressed as percent of the window between a response at EC20 concentration of dopamine alone (normalized to 0%) and the maximum response to dopamine (defined by response to 5 μM dopamine, final concentration, normalized as 100%).
Absolute EC50 values are calculated based on the maximum and minimum responses of the control agonist (dopamine). The % Potentiation (% Top) is determined from the fitted top of the concentration response curve.

Chain of human D1 receptor (P21728 whole entry): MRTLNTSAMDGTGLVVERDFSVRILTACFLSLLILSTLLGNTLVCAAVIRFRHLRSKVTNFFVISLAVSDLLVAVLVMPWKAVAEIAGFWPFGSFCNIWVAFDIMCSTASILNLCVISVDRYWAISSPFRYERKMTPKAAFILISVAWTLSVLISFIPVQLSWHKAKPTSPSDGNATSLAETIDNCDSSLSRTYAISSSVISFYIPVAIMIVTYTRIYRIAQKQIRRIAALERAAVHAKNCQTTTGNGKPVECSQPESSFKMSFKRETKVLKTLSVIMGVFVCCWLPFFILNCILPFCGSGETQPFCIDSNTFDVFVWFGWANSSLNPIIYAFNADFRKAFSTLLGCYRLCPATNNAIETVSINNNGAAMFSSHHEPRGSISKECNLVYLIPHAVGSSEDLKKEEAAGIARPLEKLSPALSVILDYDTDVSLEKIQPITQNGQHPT

Row | Compound | EC50 [nM] | Emax [%]
1 | CCn1cc(-c2cccc3c2C[C@H](CO)N(C(=O)Cc2c(Cl)cccc2Cl)[C@H]3C)cn1 [Example 2, 2-(2,6-dichlorophenyl)-1-((1S,3R)-5-(1-ethyl-1H-pyrazol-4-yl)-3-(hydroxymethyl)-1-methyl-3,4-dihydroisoquinolin-2(1H)-yl)ethan-1-one] | 172 | 91.2
2 | C[C@H]1c2cccc(-c3cnn(C4CC4)c3)c2C[C@H](CO)N1C(=O)Cc1c(Cl)cccc1Cl [Example 3, 1-((1S,3R)-5-(1-cyclopropyl-1H-pyrazol-4-yl)-3-(hydroxymethyl)-1-methyl-3,4-dihydroisoquinolin-2(1H)-yl)-2-(2,6-dichlorophenyl)ethan-1-one] | 287 | 88.1
3 | C[C@H]1c2cccc(-c3cnn(CCO)c3)c2C[C@H](CO)N1C(=O)Cc1ccccc1Cl [Example 5, 1-((1S,3R)-5-(1-(2-(l1-oxidaneyl)ethyl)-1H-pyrazol-4-yl)-3-(hydroxymethyl)-1-methyl-3,4-dihydroisoquinolin-2(1H)-yl)-2-(2-chlorophenyl)ethan-1-one] | 18.3 | 79.1
4 | C[C@H]1c2cccc(-c3cnn(C4COC4)c3)c2C[C@H](CO)N1C(=O)Cc1c(F)cccc1Cl [Example 6, 2-(2-chloro-6-fluorophenyl)-1-((1S,3R)-3-(hydroxymethyl)-1-methyl-5-(1-(oxetan-3-yl)-1H-pyrazol-4-yl)-3,4-dihydroisoquinolin-2(1H)-yl)ethan-1-one] | 42.2 | 80.4
5 | C[C@H]1c2cccc(-c3cnn(C)c3)c2C[C@H](CO)N1C(=O)Cc1ccccc1Cl [Example 7, 2-(2-chlorophenyl)-1-((1S,3R)-3-(hydroxymethyl)-1-methyl-5-(1-methyl-1H-pyrazol-4-yl)-3,4-dihydroisoquinolin-2(1H)-yl)ethan-1-one] | 81.2 | 82.4
6 | C[C@H]1c2cccc(-c3cn[nH]c3)c2C[C@H](CO)N1C(=O)Cc1c(F)cccc1Cl [Example 9, 2-(2-chloro-6-fluorophenyl)-1-((1S,3R)-3-(hydroxymethyl)-1-methyl-5-(1H-pyrazol-4-yl)-3,4-dihydroisoquinolin-2(1H)-yl)ethan-1-one] | 28 | 81.5
7 | C[C@H]1c2cccc(-c3cn[nH]c3)c2C[C@H](CO)N1C(=O)Cc1c(F)cccc1F [Example 10, 2-(2,6-difluorophenyl)-1-((1S,3R)-3-(hydroxymethyl)-1-methyl-5-(1H-pyrazol-4-yl)-3,4-dihydroisoquinolin-2(1H)-yl)ethan-1-one] | 127 | 78.1
8 | C[C@H]1c2cccc(-c3cn[nH]c3)c2C[C@H](CO)N1C(=O)Cc1cc(F)ccc1Cl [Example 11, 2-(2-chloro-5-fluorophenyl)-1-((1S,3R)-3-(hydroxymethyl)-1-methyl-5-(1H-pyrazol-4-yl)-3,4-dihydroisoquinolin-2(1H)-yl)ethan-1-one] | 112 | 79.8
9 | C[C@H]1c2cccc(-c3cn[nH]c3)c2C[C@H](CO)N1C(=O)Cc1ccc(F)cc1Cl [Example 12, 2-(2-chloro-4-fluorophenyl)-1-((1S,3R)-3-(hydroxymethyl)-1-methyl-5-(1H-pyrazol-4-yl)-3,4-dihydroisoquinolin-2(1H)-yl)ethan-1-one] | 540 | 77.1
10 | C[C@H]1c2cccc(-c3cn[nH]c3)c2C[C@H](CO)N1C(=O)Cc1ccccc1F [Example 13, 2-(2-fluorophenyl)-1-((1S,3R)-3-(hydroxymethyl)-1-methyl-5-(1H-pyrazol-4-yl)-3,4-dihydroisoquinolin-2(1H)-yl)ethan-1-one] | 484 | 89.8
11 | C[C@H]1c2cccc(-c3cn[nH]c3)c2C[C@H](CO)N1C(=O)Cc1cccc(F)c1F [Example 14, 2-(2,3-difluorophenyl)-1-((1S,3R)-3-(hydroxymethyl)-1-methyl-5-(1H-pyrazol-4-yl)-3,4-dihydroisoquinolin-2(1H)-yl)ethan-1-one] | 677 | 72.6
12 | C[C@H]1c2cccc(-c3cn[nH]c3)c2C[C@H](CO)N1C(=O)Cc1cc(F)ccc1F [Example 15, 2-(2,5-difluorophenyl)-1-((1S,3R)-3-(hydroxymethyl)-1-methyl-5-(1H-pyrazol-4-yl)-3,4-dihydroisoquinolin-2(1H)-yl)ethan-1-one] | 836 | 75.5
